pEC50: −log10 of the molar value. Where two headings read alike, the source gives them in different places.

The target of one test is T1, TLR7 (Homo sapiens, UniProt Q9NYK1).
T1 construct: lymphocytes, monocytes and dendritic cells that express TLR7, TLR8 and TLR9; endogenous in cells; host or cells: human PBMCs from healthy donors
T1 sequence (Q9NYK1 27-1049): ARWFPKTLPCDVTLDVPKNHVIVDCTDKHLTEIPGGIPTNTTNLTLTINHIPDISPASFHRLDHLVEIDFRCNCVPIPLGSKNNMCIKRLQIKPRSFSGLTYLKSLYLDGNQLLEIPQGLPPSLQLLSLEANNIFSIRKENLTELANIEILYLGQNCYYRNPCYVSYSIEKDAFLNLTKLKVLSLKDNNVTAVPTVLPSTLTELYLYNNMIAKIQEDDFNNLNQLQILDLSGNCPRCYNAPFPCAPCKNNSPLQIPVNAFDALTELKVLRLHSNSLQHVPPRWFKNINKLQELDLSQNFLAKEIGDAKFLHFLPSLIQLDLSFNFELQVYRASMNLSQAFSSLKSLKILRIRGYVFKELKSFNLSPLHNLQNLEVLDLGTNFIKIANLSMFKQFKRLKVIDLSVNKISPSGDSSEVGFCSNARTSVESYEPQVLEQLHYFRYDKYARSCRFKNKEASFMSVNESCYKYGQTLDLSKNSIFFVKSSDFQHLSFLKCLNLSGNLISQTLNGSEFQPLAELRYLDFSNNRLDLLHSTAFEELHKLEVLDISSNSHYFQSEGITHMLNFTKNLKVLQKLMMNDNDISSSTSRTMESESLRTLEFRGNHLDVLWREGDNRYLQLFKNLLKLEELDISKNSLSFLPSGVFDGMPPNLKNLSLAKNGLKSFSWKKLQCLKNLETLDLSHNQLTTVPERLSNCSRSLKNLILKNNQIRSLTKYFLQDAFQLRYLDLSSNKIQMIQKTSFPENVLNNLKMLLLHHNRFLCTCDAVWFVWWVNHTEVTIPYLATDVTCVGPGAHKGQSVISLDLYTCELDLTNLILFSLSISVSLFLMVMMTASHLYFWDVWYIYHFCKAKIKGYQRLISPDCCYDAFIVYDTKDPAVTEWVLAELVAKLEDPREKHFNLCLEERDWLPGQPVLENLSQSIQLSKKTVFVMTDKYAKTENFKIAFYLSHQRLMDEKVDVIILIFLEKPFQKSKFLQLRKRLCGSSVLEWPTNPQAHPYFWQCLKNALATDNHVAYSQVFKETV
Nature of the test: Human PBMC cell-based assay, TLR7 agonist GS-986 stimulation, cytokine (IL-6 and IFNα) readout. Conditions: human PBMCs, read-out: TLR-7 EC50. In a few lines:
(§1)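 Readout is IL-6 and IFNα in supernatants, quantified by electrochemiluminescence, with EC50 from a sigmoidal fit of cytokine versus concentration. Healthy-donor human PBMCs, 100,000 per well, got antagonist for 1 h at 37 °C, then 6 h agonist exposure: TLR7 via GS-986 at 400 nM final, TLR9 via ODN-2216 at 3 μM final.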

Another test concerns the target T2, TLR9 (Homo sapiens, UniProt Q9NR96).
T2 construct: lymphocytes, monocytes and dendritic cells that express TLR7, TLR8 and TLR9; endogenous in cells; host or cells: human PBMCs from healthy donors
T2 sequence (Q9NR96 26-1032): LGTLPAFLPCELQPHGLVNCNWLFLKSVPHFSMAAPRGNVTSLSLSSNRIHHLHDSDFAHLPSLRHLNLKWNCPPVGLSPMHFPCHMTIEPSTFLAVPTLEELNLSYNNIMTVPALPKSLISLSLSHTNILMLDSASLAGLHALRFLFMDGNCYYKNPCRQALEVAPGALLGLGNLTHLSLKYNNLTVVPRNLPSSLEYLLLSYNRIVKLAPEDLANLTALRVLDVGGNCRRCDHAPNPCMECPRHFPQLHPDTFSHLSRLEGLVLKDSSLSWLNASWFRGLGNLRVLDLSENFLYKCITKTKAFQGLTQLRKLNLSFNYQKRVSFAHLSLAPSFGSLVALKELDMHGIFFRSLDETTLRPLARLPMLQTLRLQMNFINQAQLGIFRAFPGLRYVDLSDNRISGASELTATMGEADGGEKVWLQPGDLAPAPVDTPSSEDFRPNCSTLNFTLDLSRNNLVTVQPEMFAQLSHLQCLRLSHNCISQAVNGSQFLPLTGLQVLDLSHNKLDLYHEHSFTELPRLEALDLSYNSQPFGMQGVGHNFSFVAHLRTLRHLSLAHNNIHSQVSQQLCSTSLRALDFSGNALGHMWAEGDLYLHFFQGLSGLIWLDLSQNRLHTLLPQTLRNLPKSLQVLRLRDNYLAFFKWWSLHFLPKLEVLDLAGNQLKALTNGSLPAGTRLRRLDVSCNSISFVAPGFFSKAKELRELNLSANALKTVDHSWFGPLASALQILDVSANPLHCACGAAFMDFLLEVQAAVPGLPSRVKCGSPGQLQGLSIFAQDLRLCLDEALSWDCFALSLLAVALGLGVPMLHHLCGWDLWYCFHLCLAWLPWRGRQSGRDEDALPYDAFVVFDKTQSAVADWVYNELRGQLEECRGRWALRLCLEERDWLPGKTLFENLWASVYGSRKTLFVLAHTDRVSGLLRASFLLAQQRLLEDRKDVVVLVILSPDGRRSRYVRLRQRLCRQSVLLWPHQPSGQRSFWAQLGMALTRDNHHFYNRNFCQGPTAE
The test is described as follows: Human PBMC cell-based assay, TLR9 agonist ODN-2216 stimulation, cytokine (IL-6 and IFNα) readout. Conditions: human PBMCs, ODN-2216 3 μM, 6 hours; Table 26; read-out: TLR-9 EC50. In short, it runs like this:
as §1

The mark [1] stands for this setting: GS-986 400 nM, 6 hours, Table 26.

For `Cc1c(-c2cc(C)c3ncnn3c2)[nH]c2cc(-c3ccc(N4CCNCC4)nc3)ccc12` [Example 71], the pEC50 on TLR7 (setting [1]) was 8.92; on TLR9, 6.20.
Taken in the same sequence, the figures for `Cc1cc(-c2[nH]c3cc(-c4ccc(N5CCN(CCO)CC5)nc4)ccc3c2C)cc(C)n1` [Example 37, 2-(4-(5-(2-(2,6-dimethylpyridin-4-yl)-3-methyl-1H-indol-6-yl)pyridin-2-yl)piperazin-1-yl)ethan-1-ol] were 7.76 and 7.43.
Consider `Cc1cc(-c2[nH]c3cc(C4CCCNC4)ccc3c2C)cc(C)n1` (stereo not shown) [Example 53], for which the negative-log EC50 (pEC50) is less than 6.00 on TLR7 (setting [1]), less than 6.00 on TLR7 (Table 27 comparison) and 6.74 on TLR9.
For `Cc1cc(-c2[nH]c3cc(C4CCNCC4)ccc3c2C(C)C)cn2ncnc12` [Example 55], the pEC50 on TLR7 (setting [1]) is 8.32; at TLR9, 5.40.
Taken in the same sequence, the figures for `Cc1cc(-c2[nH]c3cc(C4CCNCC4)ccc3c2C)cc(C)n1` [Example 48, 2-(2,6-dimethylpyridin-4-yl)-3-methyl-6-(piperidin-4-yl)-1H-indole] were 6.16 and 6.87.
Taken in the same sequence, the figures for `CCc1c(-c2cc(OC)c3ncnn3c2)[nH]c2cc(-c3ccc(N4CCNCC4)nc3)ccc12` [Example 169] were 9.89 and 6.30.
Taken in the same sequence, the figures for `Cc1cc(-c2[nH]c3cc(-c4ccc(N5CCNCC5)nc4)ccc3c2C)cc(C)n1` [Example 1, 2-(2,6-dimethylpyridin-4-yl)-3-methyl-6-(6-(piperazin-1-yl)pyridin-3-yl)-1H-indole] were 7.74 and 7.28.
With `Cc1cc(-c2[nH]c3cc(-c4ccc(N5CCNCC5)nc4)ccc3c2C2CC2)cn(C)c1=O` [Example 165], the figures for the pEC50 at TLR7 (setting [1]) and at TLR9 were 9.48 and 6.73, respectively.
For the compound `CCc1c(-c2cc(C)c3ncnn3c2)[nH]c2cc(-c3ccc(N4CCNCC4)nc3)ccc12` [Example 167, 6-(3-ethyl-6-(6-(piperazin-1-yl)pyridin-3-yl)-1H-indol-2-yl)-8-methyl-[1,2,4]triazolo[1,5-a]pyridine], the pEC50 at TLR7 (setting [1]) is 9.77; on TLR9, 6.41.

What is called pEC50 is the EC50 on a negative log10 scale, so that one unit is a factor of ten.
